Columns and labels:
[1] = target: CDK7/CyclinH/Mat1 (Homo sapiens, UniProt P50613); experiment: ADP Glo kinase assay, CDK7/CyclinH/Mat1; assay type: biochemical; conditions: for remaining activity at 1 µM: compound at 1 μM, read-out: Residual enzymatic activity (%) at 1 μM, CDK7 H; for Ki: Km ATP, read-out: Enzymatic inhibition, Ki, CDK7 H
How it was run: (§1)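 ADP Glo reagent terminates each kinase reaction after an optimised incubation at room temperature. Compounds are tested at ten concentrations spanning 10 to 0.0005 μM, diluted 1:3, with 0.5% DMSO.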

[2] = target: CDK9/CyclinT1 (Homo sapiens, UniProt P50750); experiment: ADP Glo kinase assay, CDK9/CyclinT1; assay type: biochemical; conditions: CDK9/CyclinT1; Km ATP; read-out: Enzymatic inhibition, Ki, CDK9 T1
How it was run: as §1

[3] = target: CDK1/CyclinB (Homo sapiens, UniProt P06493); experiment: ADP Glo kinase assay, CDK1/CyclinB; assay type: biochemical; conditions: compound at 1 μM, read-out: Residual enzymatic activity (%) at 1 μM, CDK1 B
How it was run: as §1

[4] = target: CDK6/CyclinD3 (Homo sapiens, UniProt Q00534); experiment: ADP Glo kinase assay, CDK6/CyclinD3; assay type: biochemical; conditions: for remaining activity at 1 µM: compound at 1 μM, read-out: Residual enzymatic activity (%) at 1 μM, CDK6 D3
How it was run: as §1

[5] = target: CDK4/CyclinD1 (Homo sapiens, UniProt P11802); experiment: ADP Glo kinase assay, CDK4/CyclinD1; assay type: biochemical; conditions: compound at 1 μM, read-out: Residual enzymatic activity (%) at 1 μM, CDK4 D1
How it was run: as §1

[6] = target: T1, FLT3-ITD (Homo sapiens, UniProt P36888); experiment: ADP Glo kinase assay, FLT3-ITD; assay type: biochemical; conditions: Km ATP 100 μM, read-out: Enzymatic inhibition, Ki, FLT3-ITD
T1 sequence (P36888 1-993): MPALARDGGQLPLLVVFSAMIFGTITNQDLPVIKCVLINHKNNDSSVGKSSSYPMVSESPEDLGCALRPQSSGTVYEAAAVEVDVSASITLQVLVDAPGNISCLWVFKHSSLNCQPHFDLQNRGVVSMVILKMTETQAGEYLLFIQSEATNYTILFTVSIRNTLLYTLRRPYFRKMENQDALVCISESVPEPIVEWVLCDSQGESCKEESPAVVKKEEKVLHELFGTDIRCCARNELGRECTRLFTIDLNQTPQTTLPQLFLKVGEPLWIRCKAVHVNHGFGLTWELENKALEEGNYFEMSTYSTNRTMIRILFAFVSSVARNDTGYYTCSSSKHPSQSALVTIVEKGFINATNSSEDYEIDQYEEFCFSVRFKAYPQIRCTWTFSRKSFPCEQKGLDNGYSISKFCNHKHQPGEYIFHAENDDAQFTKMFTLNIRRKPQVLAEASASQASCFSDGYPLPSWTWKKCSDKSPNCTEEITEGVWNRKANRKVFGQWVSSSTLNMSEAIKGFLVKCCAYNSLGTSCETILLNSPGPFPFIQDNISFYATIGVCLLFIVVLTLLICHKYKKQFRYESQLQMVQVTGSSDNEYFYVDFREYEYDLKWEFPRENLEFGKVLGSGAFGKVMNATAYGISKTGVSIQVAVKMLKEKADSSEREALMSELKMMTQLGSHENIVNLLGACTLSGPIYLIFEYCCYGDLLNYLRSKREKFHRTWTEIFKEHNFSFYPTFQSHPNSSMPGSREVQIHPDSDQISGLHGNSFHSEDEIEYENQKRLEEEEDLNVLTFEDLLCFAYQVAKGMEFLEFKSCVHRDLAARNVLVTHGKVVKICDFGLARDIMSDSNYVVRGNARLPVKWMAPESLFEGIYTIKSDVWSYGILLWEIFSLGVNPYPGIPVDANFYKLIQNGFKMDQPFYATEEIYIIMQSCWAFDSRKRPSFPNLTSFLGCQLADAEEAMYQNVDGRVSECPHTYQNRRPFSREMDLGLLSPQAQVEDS
How it was run: as §1

[7] = target: CDK2/CyclinA2 (Homo sapiens, UniProt P24941); experiment: ADP Glo kinase assay, CDK2/CyclinA2; assay type: biochemical; conditions: for remaining activity at 1 µM: compound at 1 μM, read-out: Residual enzymatic activity (%) at 1 μM, CDK2 A; for Ki: Km ATP, read-out: Enzymatic inhibition, Ki, CDK2 A
How it was run: as §1

[8] = tested on: MV-4-11; experiment: Proliferation assay (resazurin, leukemia cell lines), MV-4-11; assay type: cell-based; conditions: Homo sapiens, MV4-11, read-out: 72 h Growth inhibition GI50, MV-4-11 cells
From the text: The following compounds were used as comparators.

Chain of CDK7/CyclinH/Mat1 (P50613 whole entry, species assumed): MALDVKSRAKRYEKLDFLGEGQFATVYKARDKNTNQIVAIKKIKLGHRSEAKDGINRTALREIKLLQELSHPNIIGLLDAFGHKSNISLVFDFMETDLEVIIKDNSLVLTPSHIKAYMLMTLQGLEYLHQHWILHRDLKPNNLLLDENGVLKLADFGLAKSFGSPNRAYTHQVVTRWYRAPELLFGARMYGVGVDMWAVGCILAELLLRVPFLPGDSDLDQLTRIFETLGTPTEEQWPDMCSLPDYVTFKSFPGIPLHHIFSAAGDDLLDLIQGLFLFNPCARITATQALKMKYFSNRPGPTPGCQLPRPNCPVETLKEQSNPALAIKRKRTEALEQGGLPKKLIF
Chain of CDK7/CyclinH/Mat1 (P51946 whole entry partner, species assumed): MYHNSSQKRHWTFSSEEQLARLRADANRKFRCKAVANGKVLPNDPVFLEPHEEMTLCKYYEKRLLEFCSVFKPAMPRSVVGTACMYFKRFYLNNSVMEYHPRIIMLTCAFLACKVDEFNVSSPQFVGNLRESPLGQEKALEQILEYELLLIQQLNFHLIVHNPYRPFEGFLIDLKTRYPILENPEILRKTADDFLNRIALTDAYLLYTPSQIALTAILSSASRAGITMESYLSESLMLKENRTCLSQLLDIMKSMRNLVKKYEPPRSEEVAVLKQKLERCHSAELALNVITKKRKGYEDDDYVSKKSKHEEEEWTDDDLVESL
Chain of CDK7/CyclinH/Mat1 (P51948 whole entry partner, species assumed): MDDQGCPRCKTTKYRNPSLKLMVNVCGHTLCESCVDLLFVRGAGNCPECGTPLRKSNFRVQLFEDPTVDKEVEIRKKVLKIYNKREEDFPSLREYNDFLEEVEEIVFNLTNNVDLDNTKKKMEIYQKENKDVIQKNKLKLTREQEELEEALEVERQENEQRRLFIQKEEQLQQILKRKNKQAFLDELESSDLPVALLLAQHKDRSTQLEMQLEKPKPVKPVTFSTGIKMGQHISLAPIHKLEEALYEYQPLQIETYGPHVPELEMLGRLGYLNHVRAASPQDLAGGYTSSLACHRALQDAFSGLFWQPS
Chain of CDK6/CyclinD3 (Q00534 whole entry, species assumed): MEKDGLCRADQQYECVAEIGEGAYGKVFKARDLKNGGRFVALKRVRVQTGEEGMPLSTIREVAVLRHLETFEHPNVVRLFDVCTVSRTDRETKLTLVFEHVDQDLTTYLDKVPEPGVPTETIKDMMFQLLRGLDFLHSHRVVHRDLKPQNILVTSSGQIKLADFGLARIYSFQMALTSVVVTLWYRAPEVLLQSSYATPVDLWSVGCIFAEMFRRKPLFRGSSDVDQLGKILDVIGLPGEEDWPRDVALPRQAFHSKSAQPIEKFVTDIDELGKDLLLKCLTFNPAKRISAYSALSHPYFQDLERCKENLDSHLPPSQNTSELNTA
Chain of CDK6/CyclinD3 (P30281 whole entry partner, species assumed): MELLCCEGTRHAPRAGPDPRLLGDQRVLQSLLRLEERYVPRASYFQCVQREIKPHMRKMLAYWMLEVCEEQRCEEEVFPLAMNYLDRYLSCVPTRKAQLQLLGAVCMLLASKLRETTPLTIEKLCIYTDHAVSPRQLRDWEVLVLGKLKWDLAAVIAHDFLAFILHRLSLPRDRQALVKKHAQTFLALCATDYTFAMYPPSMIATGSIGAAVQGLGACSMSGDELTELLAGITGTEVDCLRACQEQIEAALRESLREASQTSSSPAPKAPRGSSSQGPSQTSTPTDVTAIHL
Chain of CDK9/CyclinT1 (P50750 whole entry, species assumed): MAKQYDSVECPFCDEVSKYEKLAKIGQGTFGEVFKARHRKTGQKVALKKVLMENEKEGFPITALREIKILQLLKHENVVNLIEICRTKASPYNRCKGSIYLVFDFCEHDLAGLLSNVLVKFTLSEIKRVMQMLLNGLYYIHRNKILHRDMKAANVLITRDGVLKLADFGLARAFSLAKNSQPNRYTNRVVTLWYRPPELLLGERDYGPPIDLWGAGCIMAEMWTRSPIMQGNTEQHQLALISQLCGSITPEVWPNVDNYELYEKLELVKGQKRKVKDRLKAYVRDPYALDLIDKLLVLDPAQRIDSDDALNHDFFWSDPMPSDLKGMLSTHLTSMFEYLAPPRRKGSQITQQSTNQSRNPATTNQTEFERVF
Chain of CDK9/CyclinT1 (O60563 whole entry partner, species assumed): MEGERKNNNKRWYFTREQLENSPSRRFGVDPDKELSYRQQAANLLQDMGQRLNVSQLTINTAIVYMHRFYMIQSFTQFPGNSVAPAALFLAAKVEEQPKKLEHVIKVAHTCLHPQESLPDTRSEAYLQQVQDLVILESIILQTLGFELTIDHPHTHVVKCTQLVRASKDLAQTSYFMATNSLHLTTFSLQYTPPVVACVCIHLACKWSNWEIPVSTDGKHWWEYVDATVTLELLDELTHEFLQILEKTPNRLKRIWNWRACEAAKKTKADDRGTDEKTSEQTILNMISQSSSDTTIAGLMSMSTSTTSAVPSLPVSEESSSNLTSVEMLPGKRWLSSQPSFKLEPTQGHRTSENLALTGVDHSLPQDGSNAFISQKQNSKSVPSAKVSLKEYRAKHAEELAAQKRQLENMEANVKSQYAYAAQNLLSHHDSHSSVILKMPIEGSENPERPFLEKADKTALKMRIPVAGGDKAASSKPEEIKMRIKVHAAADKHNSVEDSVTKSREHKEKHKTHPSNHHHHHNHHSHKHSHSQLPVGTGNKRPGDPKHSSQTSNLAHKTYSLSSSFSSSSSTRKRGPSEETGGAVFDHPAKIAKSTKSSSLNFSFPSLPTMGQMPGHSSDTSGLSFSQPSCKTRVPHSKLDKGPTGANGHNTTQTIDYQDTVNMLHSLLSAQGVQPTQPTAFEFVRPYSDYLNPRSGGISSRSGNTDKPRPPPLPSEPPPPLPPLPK
Chain of CDK1/CyclinB (P06493 whole entry, species assumed): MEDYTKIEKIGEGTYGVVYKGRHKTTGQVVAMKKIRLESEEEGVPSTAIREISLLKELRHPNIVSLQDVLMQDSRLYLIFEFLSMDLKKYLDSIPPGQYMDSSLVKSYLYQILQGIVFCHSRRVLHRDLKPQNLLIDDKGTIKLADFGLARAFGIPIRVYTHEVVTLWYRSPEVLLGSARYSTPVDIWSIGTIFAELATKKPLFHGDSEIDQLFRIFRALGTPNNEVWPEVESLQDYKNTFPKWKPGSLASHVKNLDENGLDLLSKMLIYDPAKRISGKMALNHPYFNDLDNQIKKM
Chain of CDK1/CyclinB (P14635 whole entry partner, species assumed): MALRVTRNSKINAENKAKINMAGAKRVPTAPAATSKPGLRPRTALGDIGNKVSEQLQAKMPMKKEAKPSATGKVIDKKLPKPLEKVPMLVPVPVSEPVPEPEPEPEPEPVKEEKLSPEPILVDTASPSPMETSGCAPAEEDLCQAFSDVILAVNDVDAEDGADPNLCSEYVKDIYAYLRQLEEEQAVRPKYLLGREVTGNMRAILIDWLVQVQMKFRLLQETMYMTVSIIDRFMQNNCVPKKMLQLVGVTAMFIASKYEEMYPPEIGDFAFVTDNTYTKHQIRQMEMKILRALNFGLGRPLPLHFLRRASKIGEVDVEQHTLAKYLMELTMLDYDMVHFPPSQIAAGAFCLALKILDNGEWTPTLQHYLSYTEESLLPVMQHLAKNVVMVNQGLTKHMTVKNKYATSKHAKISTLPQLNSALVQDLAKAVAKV
Chain of CDK4/CyclinD1 (P11802 whole entry, species assumed): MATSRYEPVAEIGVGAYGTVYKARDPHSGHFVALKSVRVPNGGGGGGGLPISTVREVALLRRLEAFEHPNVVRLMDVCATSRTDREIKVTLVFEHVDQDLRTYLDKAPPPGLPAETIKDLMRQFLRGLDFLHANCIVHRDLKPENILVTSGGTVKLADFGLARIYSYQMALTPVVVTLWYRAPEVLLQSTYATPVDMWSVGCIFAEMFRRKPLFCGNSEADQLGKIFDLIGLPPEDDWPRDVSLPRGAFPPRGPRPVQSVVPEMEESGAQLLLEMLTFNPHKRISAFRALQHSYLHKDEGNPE
Chain of CDK4/CyclinD1 (P24385 whole entry partner, species assumed): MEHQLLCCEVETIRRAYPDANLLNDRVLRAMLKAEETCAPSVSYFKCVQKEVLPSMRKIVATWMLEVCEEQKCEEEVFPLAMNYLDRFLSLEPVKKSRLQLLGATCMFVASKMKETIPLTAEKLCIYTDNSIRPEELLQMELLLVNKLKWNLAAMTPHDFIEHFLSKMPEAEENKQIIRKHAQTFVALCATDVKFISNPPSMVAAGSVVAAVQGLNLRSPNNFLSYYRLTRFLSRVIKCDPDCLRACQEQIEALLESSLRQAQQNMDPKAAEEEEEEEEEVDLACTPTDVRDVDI

| SMILES | remaining activity at 1 µM [1] [%] | Ki [2] [nM] | remaining activity at 1 µM [3] [%] | remaining activity at 1 µM [4] [%] | remaining activity at 1 µM [5] [%] | Ki [6] [nM] | remaining activity at 1 µM [7] [%] | GI50 [8] [nM] | Ki ([4]; Km ATP, read-out: Enzymatic inhibition, Ki, CDK6 D3) [nM] | Ki [7] [nM] | Ki [1] [nM] |
| --- | --- | --- | --- | --- | --- | --- | --- | --- | --- | --- | --- |
| c1ccc(-c2ccc3ncc(-c4ccnc(Nc5ccc(NC6CCOCC6)nc5)n4)n3c2)cc1 [Compound 58, N^5-(4-(6-Phenylimidazo[1,2-a]pyridin-3-yl)pyrimidin-2-yl)-N^2-(tetrahydro-2H-pyran-4-yl)pyridine-2,5-diamine] | 73 | 401 | 77 | 45 | 33 | 140 | 73 | 28 |  |  |  |
| CCS(=O)(=O)N1CCN(c2ccc(Nc3nccc(-c4cnc5ccc(Br)cn45)n3)cn2)CC1 [Compound 59, 4-(6-Bromoimidazo[1,2-a]pyridin-3-yl)-N-(6-(4-(ethylsulfonyl)piperazin-1-yl)pyridin-3-yl)pyrimidin-2-amine] | 88 | 234 | 70 | 49 | 52 | 86 | 44 | 32 |  |  |  |
| CN(C)c1ccc(Nc2nccc(-c3cnc4ccc(Br)cn34)n2)cn1 [Compound 65, N^5-(4-(6-Bromoimidazo[1,2-a]pyridin-3-yl)pyrimidin-2-yl)-N^2,N^2-dimethylpyridine-2,5-diamine] | 71 | 142 | 56 |  | 86 | 24 | 39 | 41 | 159 |  |  |
| O=C1NCCC12CCN(c1ccc(Nc3nccc(-c4cnc5ccc(-c6cnn(C(F)F)c6)cn45)n3)cn1)CC2 [Compound 73, 8-(5-((4-(6-(1-(Difluoromethyl)-1H-pyrazol-4-yl)imidazo[1,2-a]pyridin-3-yl)pyrimidin-2-yl)amino)pyridin-2-yl)-2,8-diazaspiro[4.5]decan-1-one] | 83 | > 500 | 73 | 97 | 82 | 116 | 80 | 14 |  |  |  |
| CCCNc1ccc(Nc2nccc(-c3cnc4ccc(Br)cn34)n2)cn1 [Compound 74, N^5-(4-(6-Bromoimidazo[1,2-a]pyridin-3-yl)pyrimidin-2-yl)-N^2-propylpyridine-2,5-diamine] | 78 | 102 | 82 | 86 | 54 | 40 | 41 | 20 |  |  |  |
| CCCNc1ccc(Nc2nccc(-c3cnc4ccc(-c5ccccc5)cn34)n2)cn1 [Compound 75, N^5-(4-(6-Phenylimidazo[1,2-a]pyridin-3-yl)pyrimidin-2-yl)-N^2-propylpyridine-2,5-diamine] | 80 | 368 | 89 | 93 | 89 | 160 | 100 | 78 |  |  |  |

The next lines start with the values.

| remaining activity at 1 µM [1] [%] | Ki [2] [nM] | remaining activity at 1 µM [3] [%] | remaining activity at 1 µM [4] [%] | remaining activity at 1 µM [5] [%] | Ki [6] [nM] | remaining activity at 1 µM [7] [%] | GI50 [8] [nM] | Ki ([4]; Km ATP, read-out: Enzymatic inhibition, Ki, CDK6 D3) [nM] | Ki [7] [nM] | Ki [1] [nM] | SMILES |
| --- | --- | --- | --- | --- | --- | --- | --- | --- | --- | --- | --- |
| 57 | 629 | 96 | 71 | 97 | 100 | 62 | 39 |  |  |  | CCCNc1ccc(Nc2nccc(-c3cnc4ccc(-c5cnn(C(F)F)c5)cn34)n2)cn1 [Compound 76, N^5-(4-(6-(1-(Difluoromethyl)-1H-pyrazol-4-yl)imidazo[1,2-a]pyridin-3-yl)pyrimidin-2-yl)-N^2-propylpyridine-2,5-diamine] |
| 40 | 51 | 74 | 48 | 52 | 70 |  | 35 |  | 40 |  | CN1CCN(Cc2ccc(Nc3nccc(-c4cnc5ccc(Br)cn45)n3)cn2)CC1 [Compound 77, 4-(6-Bromoimidazo[1,2-a]pyridin-3-yl)-N-(6-((4-methylpiperazin-1-yl)methyl)pyridin-3-yl)pyrimidin-2-amine] |
| 38 | 65 | 99 | 64 | 95 | 90 | 46 | 105 |  |  |  | CN1CCN(Cc2ccc(Nc3nccc(-c4cnc5ccc(-c6ccccc6)cn45)n3)cn2)CC1 [Compound 78, N-(6-((4-Methylpiperazin-1-yl)methyl)pyridin-3-yl)-4-(6-phenylimidazo[1,2-a]pyridin-3-yl)pyrimidin-2-amine] |
|  | 57 | 70 | 27 | 48 | 70 |  | 38 |  | 42 | 168 | CCN1CCN(Cc2ccc(Nc3nccc(-c4cnc5ccc(Br)cn45)n3)cn2)CC1 [Compound 79, 4-(6-Bromoimidazo[1,2-a]pyridin-3-yl)-N-(6-((4-ethylpiperazin-1-yl)methyl)pyridin-3-yl)pyrimidin-2-amine] |
|  | 60 | 92 | 59 | 81 | 60 | 37 | 102 |  |  | 222 | CCN1CCN(Cc2ccc(Nc3nccc(-c4cnc5ccc(-c6ccccc6)cn45)n3)cn2)CC1 [Compound 80, N-(6-((4-Ethylpiperazin-1-yl)methyl)pyridin-3-yl)-4-(6-phenylimidazo[1,2-a]pyridin-3-yl)pyrimidin-2-amine] |
|  | 143 | 84 | 22 | 47 | 70 |  | 98 |  | 41 | 205 | CN(C)C1CCN(Cc2ccc(Nc3nccc(-c4cnc5ccc(Br)cn45)n3)cn2)CC1 [Compound 81, 4-(6-Bromoimidazo[1,2-a]pyridin-3-yl)-N-(6-((4-(dimethylamino)piperidin-1-yl)methyl)pyridin-3-yl)pyrimidin-2-amine] |
| 93 | 163 | 90 | 99 | 94 | 180 |  | 262 |  | 52 |  | COC(=O)c1ccc(Nc2nccc(-c3cnc4ccc(Br)cn34)n2)cn1 [Compound 82, Methyl 5-((4-(6-bromoimidazo[1,2-a]pyridin-3-yl)pyrimidin-2-yl)amino)picolinate] |

Source: patent US20240158391A1, “DERIVATIVES OF 4-(IMIDAZO[1,2-A]PYRIDIN-3-YL)-N-(PYRIDIN-3-YL) PYRIMIDIN-2- AMINE FOR TREATING PROLIFERATIVE DISEASES AND CONDITIONS” (AUCENTRA THERAPEUTICS PTY LTD, priority 2019, published 2024)
